Test results reported in patent US20010034328A1, “Treatment of male chronic pelvic pain syndrome” (priority 2000, published 2001).

Key:
[1] = tested on: male subjects having a clinical diagnosis of chronic pelvic pain syndrome; test: treatment of male subjects with chronic pelvic pain syndrome with 600-900 mg per day; assay type: in vivo, human; details: 600, 700, 800 or 900 mg per day orally, up to sixteen weeks or more
Protocol: Utilizing capsules prepared as above and 100 mg capsules available from ALZA Corporation as appropriate to meet the daily dosing requirements, male subjects having a clinical diagnosis of chronic pelvic pain syndrome are treated with 600, 700, 800 or 900 mg per day of pentosan polysulfate sodium for up to sixteen weeks, generally 1-2 weeks, 2-4 weeks, 4-8 weeks, 8-16 weeks or up to 32 weeks or more. The daily doses may be administered in multiple doses, generally three times per day with each dose containing equal amounts of pentosan polysulfate. As examples, the daily 600 mg dose may be administered as two 300 mg capsules of pentosan polysulfate as described herein in the morning and evening, or as three 200 mg doses (two 100 mg capsules) in the morning, at mid-day and in the evening. Typically, administration is in the non-fed mode with subjects receiving the doses either at least one hour before a meal or at least two hours after a meal. Daily 900 mg doses may be administered as three 300 mg capsules in the morning, at mid-day and in the evening. As with the 600 mg daily dose, administration typically is in the non-fed mode with subjects receiving the doses either at least one hour before a meal or at least two hours after a meal. […]

[2] = tested on: male subjects exhibiting signs and symptoms of Category III prostatitis; details: 200 mg bid, cited from earlier work
[3] = tested on: terminally ill cancer patients; details: approximately 900-2100 mg/day for up to 8 months; twenty-one patients; cited from earlier work
[4] = cited from earlier work

For pentosan polysulfate, the “relief of intensity and frequency of symptoms (pain, frequency and urgency of urination, nocturia, ejaculatory pain, impotence)” value [1] is given as “can experience relief”, the median measurement score ([2]; after 3 months of treatment, compared with placebo) is given as “lowered to a greater extent than the placebo group” and the “difference between the treatment group and the placebo group” value ([2]; after 3 months of treatment) is given as “no evident difference”. For the same substance, the symptoms of myalgia/arthralgia ([2]; treatment group) was “some improvement”, the “patients who experienced some degree of bleeding from the rectum or digestive tract” value [3] was “Twenty” and the oral bioavailability [4] was “approximately 3%”.
